What was measured:
[1] = molecular target: Cyclin-dependent kinase 4 (Homo sapiens) (UniProt P11802); settings: Compound concentration 100.0 nM
[2] = molecular target: Tyrosine-protein kinase Fer (Homo sapiens, UniProt P16591); settings: Compound concentration 100.0 nM
[3] = molecular target: Tyrosine-protein kinase Lck (Homo sapiens) (UniProt P06239); settings: Compound concentration 100.0 nM
[4] = molecular target: Rhodopsin kinase GRK7 (Homo sapiens) (UniProt Q8WTQ7); settings: Compound concentration 100.0 nM
[5] = system: Tyrosine-protein kinase ABL1 (Homo sapiens), P00519 [T315I]; settings: Compound concentration 100.0 nM
[6] = molecular target: AP2-associated protein kinase 1 (Homo sapiens) (UniProt Q2M2I8); settings: Compound concentration 100.0 nM
[7] = molecular target: Calcium/calmodulin-dependent protein kinase type II subunit alpha (Homo sapiens) (UniProt Q9UQM7); settings: Compound concentration 100.0 nM
[8] = molecular target: Uncharacterized serine/threonine-protein kinase SBK3 (Homo sapiens) (UniProt P0C264); settings: Compound concentration 100.0 nM
[9] = system: Receptor-type tyrosine-protein kinase FLT3 (Homo sapiens), P36888 [D835H]; settings: Compound concentration 100.0 nM
[10] = molecular target: Aurora kinase C (Homo sapiens) (UniProt Q9UQB9); settings: Compound concentration 100.0 nM
[11] = molecular target: Tyrosine-protein kinase SYK (Homo sapiens, UniProt P43405); settings: Compound concentration 100.0 nM
[12] = system: Receptor-type tyrosine-protein kinase FLT3 (Homo sapiens), P36888 [K663Q]; settings: Compound concentration 100.0 nM
[13] = molecular target: Serine/threonine-protein kinase D3 (Homo sapiens) (UniProt O94806); settings: Compound concentration 100.0 nM
[14] = molecular target: Serine/threonine-protein kinase STK11 (Homo sapiens) (UniProt Q15831); settings: Compound concentration 100.0 nM
[15] = system: Receptor-type tyrosine-protein kinase FLT3 (Homo sapiens), P36888 [D835V]; settings: Compound concentration 100.0 nM
[16] = molecular target: Epidermal growth factor receptor (Homo sapiens) (UniProt P00533); settings: Compound concentration 100.0 nM
[17] = molecular target: Citron Rho-interacting kinase (Homo sapiens) (UniProt O14578); settings: Compound concentration 100.0 nM
[18] = molecular target: Mitogen-activated protein kinase kinase kinase 10 (Homo sapiens) (UniProt Q02779); settings: Compound concentration 100.0 nM
[19] = molecular target: Histamine H1 receptor (Homo sapiens) (UniProt P35367); settings: Compound concentration 10.0 uM
[20] = molecular target: Activin receptor type-2A (Homo sapiens) (UniProt P27037); settings: Compound concentration 100.0 nM
[21] = system: Fibroblast growth factor receptor 3 (Homo sapiens), P22607 [G697C]; settings: Compound concentration 100.0 nM
[22] = molecular target: Tyrosine-protein kinase ABL2 (Homo sapiens) (UniProt P42684); settings: Compound concentration 100.0 nM
[23] = molecular target: Calcium/calmodulin-dependent protein kinase type 1D (Homo sapiens) (UniProt Q8IU85); settings: Compound concentration 100.0 nM
[24] = molecular target: Interleukin-1 receptor-associated kinase 1 (Homo sapiens) (UniProt P51617); settings: Compound concentration 100.0 nM
[25] = molecular target: Myosin light chain kinase (Homo sapiens) (UniProt Q32MK0); settings: Compound concentration 100.0 nM
[26] = molecular target: Protein kinase C delta type (Homo sapiens) (UniProt Q05655); settings: Compound concentration 100.0 nM
[27] = molecular target: Serine/threonine-protein kinase ULK3 (Homo sapiens) (UniProt Q6PHR2); settings: Compound concentration 100.0 nM
[28] = molecular target: Death-associated protein kinase 1 (Homo sapiens) (UniProt P53355); settings: Compound concentration 100.0 nM
[29] = molecular target: Serine/threonine-protein kinase PLK3 (Homo sapiens) (UniProt Q9H4B4); settings: Compound concentration 100.0 nM
[30] = molecular target: Mitogen-activated protein kinase 6 (Homo sapiens) (UniProt Q16659); settings: Compound concentration 100.0 nM
[31] = molecular target: Tyrosine-protein kinase ABL1 (Homo sapiens) (UniProt P00519); settings: Compound concentration 100.0 nM
[32] = molecular target: Serine/threonine-protein kinase PAK 1 (Homo sapiens) (UniProt Q13153); settings: Compound concentration 100.0 nM
[33] = molecular target: Ribosomal protein S6 kinase beta-1 (Homo sapiens) (UniProt P23443); settings: Compound concentration 100.0 nM
[34] = molecular target: RAC-gamma serine/threonine-protein kinase (Homo sapiens) (UniProt Q9Y243); settings: Compound concentration 100.0 nM
[35] = molecular target: cAMP-dependent protein kinase catalytic subunit alpha (Homo sapiens) (UniProt P17612); settings: Compound concentration 100.0 nM
[36] = system: Receptor-type tyrosine-protein kinase FLT3 (Homo sapiens), P36888 [D835Y]; settings: Compound concentration 100.0 nM
[37] = molecular target: Serine/threonine-protein kinase 26 (Homo sapiens) (UniProt Q9P289); settings: Compound concentration 100.0 nM
[38] = molecular target: G protein-coupled receptor kinase 3 (Homo sapiens) (UniProt P35626); settings: Compound concentration 100.0 nM
[39] = molecular target: Hormonally up-regulated neu tumor-associated kinase (Homo sapiens) (UniProt P57058); settings: Compound concentration 100.0 nM
[40] = molecular target: Phosphatidylinositol 4,5-bisphosphate 3-kinase catalytic subunit beta isoform (Homo sapiens) (UniProt P42338); settings: Compound concentration 100.0 nM
[41] = molecular target: Serine/threonine-protein kinase Nek4 (Homo sapiens) (UniProt P51957); settings: Compound concentration 100.0 nM
[42] = molecular target: Phosphatidylinositol 4-kinase beta (Homo sapiens) (UniProt Q9UBF8); settings: Compound concentration 100.0 nM
[43] = molecular target: Insulin receptor-related protein (Homo sapiens) (UniProt P14616); settings: Compound concentration 100.0 nM
[44] = molecular target: Casein kinase I isoform epsilon (Homo sapiens) (UniProt P49674); settings: Compound concentration 100.0 nM
[45] = system: ALK tyrosine kinase receptor (Homo sapiens), Q9UM73 [C1156Y]; settings: Compound concentration 100.0 nM
[46] = molecular target: Cyclin-G-associated kinase (Homo sapiens) (UniProt O14976); settings: Compound concentration 100.0 nM

Serine/threonine-protein kinase Nek4 (Homo sapiens), sequence (P51957 whole entry, looked up): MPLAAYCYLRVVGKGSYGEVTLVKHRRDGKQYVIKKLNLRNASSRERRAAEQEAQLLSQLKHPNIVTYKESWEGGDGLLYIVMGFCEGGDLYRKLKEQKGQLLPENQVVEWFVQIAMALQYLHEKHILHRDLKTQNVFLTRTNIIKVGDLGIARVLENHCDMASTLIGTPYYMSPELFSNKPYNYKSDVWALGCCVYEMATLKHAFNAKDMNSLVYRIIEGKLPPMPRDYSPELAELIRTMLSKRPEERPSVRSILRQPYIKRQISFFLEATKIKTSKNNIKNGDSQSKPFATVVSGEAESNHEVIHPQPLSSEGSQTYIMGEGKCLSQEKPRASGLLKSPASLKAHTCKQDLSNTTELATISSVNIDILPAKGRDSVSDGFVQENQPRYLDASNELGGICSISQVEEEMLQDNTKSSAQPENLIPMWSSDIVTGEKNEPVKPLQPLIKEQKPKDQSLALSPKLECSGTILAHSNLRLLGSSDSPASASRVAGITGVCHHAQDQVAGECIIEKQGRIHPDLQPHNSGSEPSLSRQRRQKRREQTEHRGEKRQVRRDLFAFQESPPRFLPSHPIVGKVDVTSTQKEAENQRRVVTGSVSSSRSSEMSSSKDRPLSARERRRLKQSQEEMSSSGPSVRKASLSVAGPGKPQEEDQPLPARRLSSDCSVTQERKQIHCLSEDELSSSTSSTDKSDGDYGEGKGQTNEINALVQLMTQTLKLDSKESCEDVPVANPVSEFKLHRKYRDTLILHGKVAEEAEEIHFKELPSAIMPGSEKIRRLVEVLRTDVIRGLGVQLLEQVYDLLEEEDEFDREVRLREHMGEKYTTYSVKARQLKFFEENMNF
Tyrosine-protein kinase Fer, sequence (P16591 whole entry, looked up): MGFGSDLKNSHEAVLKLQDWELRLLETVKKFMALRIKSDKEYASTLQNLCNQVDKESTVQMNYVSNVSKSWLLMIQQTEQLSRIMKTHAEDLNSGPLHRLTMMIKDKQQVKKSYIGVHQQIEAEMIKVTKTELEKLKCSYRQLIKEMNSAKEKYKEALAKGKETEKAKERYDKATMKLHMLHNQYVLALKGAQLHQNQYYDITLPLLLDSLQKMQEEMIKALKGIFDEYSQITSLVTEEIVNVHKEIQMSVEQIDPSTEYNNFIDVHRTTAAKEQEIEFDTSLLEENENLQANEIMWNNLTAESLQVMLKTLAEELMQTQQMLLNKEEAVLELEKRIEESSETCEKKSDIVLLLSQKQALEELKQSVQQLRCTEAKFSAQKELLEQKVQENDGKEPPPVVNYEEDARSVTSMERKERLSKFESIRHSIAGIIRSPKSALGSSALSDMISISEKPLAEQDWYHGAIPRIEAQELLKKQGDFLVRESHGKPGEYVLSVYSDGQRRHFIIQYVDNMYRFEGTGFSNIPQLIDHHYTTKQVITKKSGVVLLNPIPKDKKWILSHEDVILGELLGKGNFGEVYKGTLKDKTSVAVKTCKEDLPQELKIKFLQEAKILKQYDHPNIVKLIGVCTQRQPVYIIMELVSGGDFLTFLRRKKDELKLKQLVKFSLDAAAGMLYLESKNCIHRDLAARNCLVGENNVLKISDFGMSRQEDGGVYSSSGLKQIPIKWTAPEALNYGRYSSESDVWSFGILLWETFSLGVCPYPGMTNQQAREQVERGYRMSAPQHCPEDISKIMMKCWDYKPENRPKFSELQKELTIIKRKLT
Serine/threonine-protein kinase D3 (Homo sapiens), sequence (O94806 whole entry): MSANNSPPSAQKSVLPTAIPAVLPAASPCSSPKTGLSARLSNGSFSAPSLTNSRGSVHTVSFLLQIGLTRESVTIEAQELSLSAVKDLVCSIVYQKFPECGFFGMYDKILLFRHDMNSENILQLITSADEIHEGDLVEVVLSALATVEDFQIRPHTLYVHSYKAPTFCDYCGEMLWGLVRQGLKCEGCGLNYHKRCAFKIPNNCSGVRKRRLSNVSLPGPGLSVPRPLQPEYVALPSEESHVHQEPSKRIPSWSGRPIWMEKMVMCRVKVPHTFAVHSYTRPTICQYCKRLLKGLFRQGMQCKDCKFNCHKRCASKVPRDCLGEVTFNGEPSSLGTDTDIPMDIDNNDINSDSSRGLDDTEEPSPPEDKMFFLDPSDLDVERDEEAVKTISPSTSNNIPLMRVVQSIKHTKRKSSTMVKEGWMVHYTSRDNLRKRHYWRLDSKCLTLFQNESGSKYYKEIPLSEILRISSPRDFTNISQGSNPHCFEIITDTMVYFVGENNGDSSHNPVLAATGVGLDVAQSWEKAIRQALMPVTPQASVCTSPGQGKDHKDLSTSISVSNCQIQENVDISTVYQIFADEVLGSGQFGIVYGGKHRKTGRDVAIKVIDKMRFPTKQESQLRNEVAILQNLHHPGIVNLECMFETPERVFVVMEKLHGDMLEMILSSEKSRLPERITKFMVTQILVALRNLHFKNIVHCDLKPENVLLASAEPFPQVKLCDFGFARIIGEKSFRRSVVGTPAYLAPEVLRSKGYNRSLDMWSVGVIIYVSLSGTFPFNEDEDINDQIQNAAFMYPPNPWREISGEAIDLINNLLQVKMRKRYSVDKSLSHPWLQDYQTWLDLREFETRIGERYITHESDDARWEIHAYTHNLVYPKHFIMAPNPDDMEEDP
Epidermal growth factor receptor (Homo sapiens), sequence (P00533 whole entry): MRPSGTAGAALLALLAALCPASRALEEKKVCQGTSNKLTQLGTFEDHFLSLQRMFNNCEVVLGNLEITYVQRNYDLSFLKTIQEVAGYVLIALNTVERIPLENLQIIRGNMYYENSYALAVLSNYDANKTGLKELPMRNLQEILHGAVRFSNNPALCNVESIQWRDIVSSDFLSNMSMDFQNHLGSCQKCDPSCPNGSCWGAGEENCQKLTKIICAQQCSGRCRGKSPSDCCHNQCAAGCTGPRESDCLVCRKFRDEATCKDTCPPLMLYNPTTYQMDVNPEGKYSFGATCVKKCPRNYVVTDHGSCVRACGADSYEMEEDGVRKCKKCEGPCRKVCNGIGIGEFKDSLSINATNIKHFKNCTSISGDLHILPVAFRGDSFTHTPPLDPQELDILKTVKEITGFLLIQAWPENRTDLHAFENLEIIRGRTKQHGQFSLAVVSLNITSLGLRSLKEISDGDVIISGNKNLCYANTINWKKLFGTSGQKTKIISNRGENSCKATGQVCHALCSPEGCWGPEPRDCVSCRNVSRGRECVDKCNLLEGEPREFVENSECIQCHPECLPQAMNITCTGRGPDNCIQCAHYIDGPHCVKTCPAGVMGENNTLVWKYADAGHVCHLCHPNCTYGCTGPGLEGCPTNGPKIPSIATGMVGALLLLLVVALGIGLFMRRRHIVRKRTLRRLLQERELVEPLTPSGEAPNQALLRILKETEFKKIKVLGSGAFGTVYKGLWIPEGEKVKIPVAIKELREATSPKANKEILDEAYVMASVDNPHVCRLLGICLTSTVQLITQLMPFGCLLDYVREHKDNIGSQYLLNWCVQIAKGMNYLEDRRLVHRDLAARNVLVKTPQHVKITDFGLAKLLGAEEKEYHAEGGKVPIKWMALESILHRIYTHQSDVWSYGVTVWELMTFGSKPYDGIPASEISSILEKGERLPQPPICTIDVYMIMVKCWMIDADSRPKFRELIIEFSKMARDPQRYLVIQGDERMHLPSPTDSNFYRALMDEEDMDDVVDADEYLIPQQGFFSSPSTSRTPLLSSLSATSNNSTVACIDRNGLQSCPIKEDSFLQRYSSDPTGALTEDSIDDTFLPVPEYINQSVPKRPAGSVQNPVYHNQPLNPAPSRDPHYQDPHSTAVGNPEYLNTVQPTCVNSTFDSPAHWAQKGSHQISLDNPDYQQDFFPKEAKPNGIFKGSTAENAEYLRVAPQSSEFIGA
Ribosomal protein S6 kinase beta-1 (Homo sapiens), sequence (P23443 whole entry, looked up): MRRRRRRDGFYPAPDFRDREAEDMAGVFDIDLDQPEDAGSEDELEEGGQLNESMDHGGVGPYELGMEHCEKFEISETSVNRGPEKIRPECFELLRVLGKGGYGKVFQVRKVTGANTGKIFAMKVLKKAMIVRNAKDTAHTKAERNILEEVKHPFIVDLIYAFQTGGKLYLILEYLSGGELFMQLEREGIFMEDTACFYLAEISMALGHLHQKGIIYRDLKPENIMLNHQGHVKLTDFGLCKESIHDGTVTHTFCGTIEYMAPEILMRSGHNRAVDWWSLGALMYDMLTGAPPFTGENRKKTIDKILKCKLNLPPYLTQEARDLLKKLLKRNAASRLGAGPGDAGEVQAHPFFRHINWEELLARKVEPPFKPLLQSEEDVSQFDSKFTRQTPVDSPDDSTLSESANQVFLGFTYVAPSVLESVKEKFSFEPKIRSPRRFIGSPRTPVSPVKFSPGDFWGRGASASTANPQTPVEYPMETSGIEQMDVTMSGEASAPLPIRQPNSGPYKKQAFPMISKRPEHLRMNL
Serine/threonine-protein kinase PLK3 (Homo sapiens), sequence (Q9H4B4 whole entry, looked up): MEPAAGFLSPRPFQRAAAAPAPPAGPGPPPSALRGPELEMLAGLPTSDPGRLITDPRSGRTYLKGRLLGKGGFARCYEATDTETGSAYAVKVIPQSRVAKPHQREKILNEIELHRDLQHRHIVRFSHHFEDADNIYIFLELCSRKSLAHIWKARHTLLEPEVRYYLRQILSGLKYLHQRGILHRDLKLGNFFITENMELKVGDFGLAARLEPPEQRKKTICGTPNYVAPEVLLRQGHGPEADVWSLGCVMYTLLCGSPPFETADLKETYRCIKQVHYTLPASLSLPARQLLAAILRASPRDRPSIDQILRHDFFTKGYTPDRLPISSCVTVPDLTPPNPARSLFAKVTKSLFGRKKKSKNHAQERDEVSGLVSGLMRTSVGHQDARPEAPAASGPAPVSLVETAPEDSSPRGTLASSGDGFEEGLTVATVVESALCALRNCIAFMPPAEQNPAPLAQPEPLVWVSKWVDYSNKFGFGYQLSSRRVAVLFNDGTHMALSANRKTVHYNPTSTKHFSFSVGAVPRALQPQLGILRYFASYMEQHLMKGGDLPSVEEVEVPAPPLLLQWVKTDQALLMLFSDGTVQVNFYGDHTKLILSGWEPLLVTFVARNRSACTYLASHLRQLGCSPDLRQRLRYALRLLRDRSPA

## Cc1ccc(-c2cnc([C@@]3(O)CC[C@H](C(=O)O)C(C)(C)C3)s2)cc1Nc1cccc(C(F)(F)F)n1 [MRL-SYKi-NC]
[1]
  residual activity: 100%
[2]
  residual activity: 95.4%
[3]
  residual activity: 100%
[4]
  residual activity: 75.4%
[5]
  residual activity: 100%
[6]
  residual activity: 85.7%
[7]
  residual activity: 90.8%
[8]
  residual activity: 100%
[9]
  residual activity: 100%
[10]
  residual activity: 100%
[11]
  residual activity: 90%
[12]
  residual activity: 100%
[13]
  residual activity: 100%
[14]
  residual activity: 70.8%
[15]
  residual activity: 100%
[16]
  residual activity: 69.4%
[17]
  residual activity: 90.9%
[18]
  residual activity: 69.4%
[19]
  inhibition: 9.09%
[20]
  residual activity: 96.9%
[21]
  residual activity: 100%
[22]
  residual activity: 98.3%
[23]
  residual activity: 89.6%
[24]
  residual activity: 49.8%
[25]
  residual activity: 90.9%
[26]
  residual activity: 89%
[27]
  residual activity: 68.1%
[28]
  residual activity: 100%
[29]
  residual activity: 100%
[30]
  residual activity: 100%
[31]
  residual activity: 100%
[32]
  residual activity: 94.5%
[33]
  residual activity: 85.9%
[34]
  residual activity: 82.8%
[35]
  residual activity: 100%
[36]
  residual activity: 94.1%
[37]
  residual activity: 100%
[38]
  residual activity: 98.3%
[39]
  residual activity: 96.2%
[40]
  residual activity: 77.1%
[41]
  residual activity: 84%
[42]
  residual activity: 81.2%
[43]
  residual activity: 86.1%
[44]
  residual activity: 87.6%
[45]
  residual activity: 100%
[46]
  residual activity: 100%

## Cc1cc(Nc2nccc(C)n2)cc(-c2cnc([C@@]3(O)CC[C@H](C(=O)O)C(C)(C)C3)s2)c1 [MRL-SYKi]
[1]
  residual activity: 76.9%
[2]
  residual activity: 100%
[3]
  residual activity: 73%
[4]
  residual activity: 100%
[5]
  residual activity: 100%
[6]
  residual activity: 100%
[7]
  residual activity: 100%
[8]
  residual activity: 100%
[9]
  residual activity: 70.7%
[10]
  residual activity: 100%
[11]
  residual activity: 0.9%
[12]
  residual activity: 82.1%
[13]
  residual activity: 100%
[14]
  residual activity: 100%
[15]
  residual activity: 75.6%
[16]
  residual activity: 100%
[17]
  residual activity: 100%
[18]
  residual activity: 95.1%
[19]
  inhibition: 7.85%
[20]
  residual activity: 85.6%
[21]
  residual activity: 100%
[22]
  residual activity: 85.8%
[23]
  residual activity: 97.1%
[24]
  residual activity: 80.7%
[25]
  residual activity: 100%
[26]
  residual activity: 83.7%
[27]
  residual activity: 56.1%
[28]
  residual activity: 100%
[29]
  residual activity: 74.6%
[30]
  residual activity: 97.9%
[31]
  residual activity: 63.3%
[32]
  residual activity: 100%
[33]
  residual activity: 78.2%
[34]
  residual activity: 100%
[35]
  residual activity: 100%
[36]
  residual activity: 83.4%
[37]
  residual activity: 100%
[38]
  residual activity: 73.7%
[39]
  residual activity: 100%
[40]
  residual activity: 100%
[41]
  residual activity: 96.6%
[42]
  residual activity: 88.6%
[43]
  residual activity: 100%
[44]
  residual activity: 100%
[45]
  residual activity: 100%
[46]
  residual activity: 100%

From ChEMBL document CHEMBL4507285, “Data for DCP probe MRL-SYKi” (2021)
